Data as given in patent publication US8084254B2, “Human blood brain barrier model” (Institut National de la Sante et de la Recherche Medicale …, priority 2004, dated 2011).

How the values were obtained:
[1] = brain perfusion of adult rats; reported values (Cisternino et al.); cited from earlier work
P-gp = P-gp (Homo sapiens, UniProt P08183); assay: Drug accumulation in hCMEC/D3 cells with P-gp inhibitor; details: PSC-833 10 μM
Procedure: The plates were shaken during both preincubation and incubation periods to reduce the effect of the aqueous boundary layer on drug accumulation. The cells were rapidly washed three times with ice-cold PBS to eliminate the extracellular drug, and then lyed in 100 μl 0.1 M NaOH or 1% Triton-X100.

hCMEC/D3 monolayers = assay: Transendothelial electrical resistance (TEER) of hCMEC/D3 monolayers; format: cell-based, human; details: treatment of hCMEC/D3 monolayers
Procedure: Transendothelial electrical resistance (TEER) of hCMEC/D3 monolayers on Transwell-Clear™ filters was measured using an Endohm 12 chamber and an Endohmeter (World Precision Instruments Inc., Sarasota, Fla., USA). The baseline resistance of ECM-coated inserts was always subtracted from the resistance obtained in the presence of the endothelial cultures. Primary cultures of rat brain endothelial cells were used as control.

hCMEC/D3 cells = tested on: hCMEC/D3 cells
Procedure: HCMEC/D3 cells were seeded on the filters at a density of 2×10^5 cells/cm^2 in normal culture medium (EGM-2). […] All plates were kept at 37° C. […] PS (clearance) is the permeability surface area product and s is the surface area of the filter (1 cm^2).

Sequence of P-gp (P08183 whole entry): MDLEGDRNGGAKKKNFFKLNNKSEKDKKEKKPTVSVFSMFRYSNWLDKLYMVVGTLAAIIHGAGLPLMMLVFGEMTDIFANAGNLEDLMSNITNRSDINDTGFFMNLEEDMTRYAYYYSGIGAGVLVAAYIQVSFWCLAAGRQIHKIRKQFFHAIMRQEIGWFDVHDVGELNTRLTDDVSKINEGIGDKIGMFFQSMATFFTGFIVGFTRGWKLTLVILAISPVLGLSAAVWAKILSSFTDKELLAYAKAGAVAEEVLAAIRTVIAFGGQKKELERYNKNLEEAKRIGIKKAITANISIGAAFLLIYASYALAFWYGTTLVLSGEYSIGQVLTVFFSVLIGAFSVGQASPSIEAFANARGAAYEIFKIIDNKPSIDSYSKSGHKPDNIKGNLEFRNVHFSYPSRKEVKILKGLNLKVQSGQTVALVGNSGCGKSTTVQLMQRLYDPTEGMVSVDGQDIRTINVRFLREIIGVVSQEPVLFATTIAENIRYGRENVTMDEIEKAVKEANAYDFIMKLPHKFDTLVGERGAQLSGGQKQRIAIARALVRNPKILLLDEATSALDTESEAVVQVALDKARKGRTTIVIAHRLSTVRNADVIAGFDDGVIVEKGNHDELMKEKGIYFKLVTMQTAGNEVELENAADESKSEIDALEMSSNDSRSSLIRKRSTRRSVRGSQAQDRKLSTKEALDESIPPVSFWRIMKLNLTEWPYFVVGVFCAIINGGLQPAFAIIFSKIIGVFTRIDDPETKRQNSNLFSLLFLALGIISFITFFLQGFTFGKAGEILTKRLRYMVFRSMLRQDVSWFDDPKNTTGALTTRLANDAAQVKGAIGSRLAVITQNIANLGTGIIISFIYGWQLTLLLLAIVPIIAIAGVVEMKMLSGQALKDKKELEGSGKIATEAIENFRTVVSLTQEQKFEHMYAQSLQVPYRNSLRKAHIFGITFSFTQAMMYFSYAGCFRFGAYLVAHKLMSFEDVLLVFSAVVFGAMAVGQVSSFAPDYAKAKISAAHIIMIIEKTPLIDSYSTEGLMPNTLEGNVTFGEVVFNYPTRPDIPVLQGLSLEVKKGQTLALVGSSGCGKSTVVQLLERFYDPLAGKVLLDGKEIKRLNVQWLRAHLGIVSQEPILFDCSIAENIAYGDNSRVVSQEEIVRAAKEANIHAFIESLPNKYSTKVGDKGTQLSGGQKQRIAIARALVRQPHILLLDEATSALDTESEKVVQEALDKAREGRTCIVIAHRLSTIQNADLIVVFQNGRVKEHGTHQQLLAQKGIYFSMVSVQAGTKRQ

Row | Compound | In vivo Kin [1] [µL/s/g] | further results
1 | COc1cc2c(c(OC)c1OC)-c1ccc(OC)c(=O)cc1[C@@H](NC(C)=O)CC2 [Colchicine] | 0.28 | 
2 | CN1C(=O)CN=C(c2ccccc2)c2cc(Cl)ccc21 [Diazepam] | 45 | 
3 | CN1CC[C@]23c4c5ccc(O)c4O[C@H]2[C@@H](O[C@@H]2O[C@H](C(=O)O)[C@@H](O)[C@H](O)[C@H]2O)C=C[C@H]3[C@H]1C5 [M6G, morphine-6-glucuronide] | 0.03 | 
4 | C/C=C/C[C@@H](C)C(=O)[C@H]1C(=O)N[C@@H](C(C)C)C(=O)N(C)CC(=O)N(C)[C@@H](CC(C)C)C(=O)N[C@@H](C(C)C)C(=O)N(C)[C@@H](CC(C)C)C(=O)N[C@@H](C)C(=O)N[C@H](C)C(=O)N(C)[C@@H](CC(C)C)C(=O)N(C)[C@@H](CC(C)C)C(=O)N(C)[C@@H](C(C)C)C(=O)N1C [PSC-833] |  | [3H] daunorubicin uptake by hCMEC/D3 cells (P-gp): markedly increased; calcein-AM uptake by hCMEC/D3 cells (P-gp; calcein-AM 10 μM): markedly increased; rhodamine 123 uptake by hCMEC/D3 cells (P-gp; rhodamine 123 10 μM): markedly increased
5 | COc1cc2nc(N3CCN(C(=O)c4ccco4)CC3)nc(N)c2cc1OC [Prazosin] | 0.96 | 
6 | CC[C@]1(O)C[C@H]2CN(CCc3c([nH]c4ccccc34)[C@@](C(=O)OC)(c3cc4c(cc3OC)N(C=O)[C@H]3[C@@](O)(C(=O)OC)[C@H](OC(C)=O)[C@]5(CC)C=CCN6CC[C@]43[C@@H]65)C2)C1 [Vincristine] | 0.06 | 
7 | Nc1ncnc2c1nc(Sc1ccc(Cl)cc1)n2[C@@H]1O[C@@H]2COP(=O)(O)O[C@H]2[C@H]1O [chlorophenylthio-cAMP] |  | Effect on TEER value (hCMEC/D3 monolayers): failed to significantly increase
8 | Lucifer Yellow |  | Permeability of Lucifer Yellow across hCMEC/D3 (hCMEC/D3 cells): 0.53±0.10 10^−3 cm/min
